Laboratory results reported in ChEMBL document CHEMBL5150040, “Bis-aryl-α,β-unsaturated ketone (ABK) chaperonin inhibitors exhibit selective cytotoxicity to colorectal cancer cells that correlates with levels of aberrant HSP60 in the cytosol” (Bioorg Med Chem, 2022).
Calls of active or inactive are those of the source. The calls are words filed in the database; no cut-off is given here.

Key:
[1] = Inhibition of Escherichia coli GroEL expressed in NEB-5-alpha Escherichia coli cells/Escherichia coli GroES expressed in Escherichia coli BL21(DE3) cells assessed as inhibition of GroEL/ES-mediated dMDH refolding by reporter analysis
[2] = Inhibition of Escherichia coli GroEL expressed in NEB-5-alpha Escherichia coli cells/Escherichia coli GroES expressed in Escherichia coli BL21(DE3) cells assessed as inhibition of GroEL/ES-mediated dRho refolding by reporter analysis
[3] = Inhibition of human mitochondrial HSP60 expressed in Escherichia coli Rosetta 2 (DE3) cells/human mitochondrial HSP10 expressed in Escherichia coli Rosetta 2 (DE3) pLysS cells assessed as inhibition of […]-mediated dMDH refolding by reporter analysis; type: mitochondria, Mitochondria
[4] = Inhibition of refolded rhodanese reporter enzyme (unknown origin); set-up: species or system Homo sapiens
[5] = Inhibition of refolded MDH reporter enzyme (unknown origin); set-up: species or system Homo sapiens
HCT-116 [6] = experiment: Cytotoxicity against human HCT-116 cells assessed as reduction in cell viability incubated for 48 hrs by AlamarBlue-based assay; type: functional; conditions: HCT-116, 48 h
DLD-1 = experiment: Cytotoxicity against human DLD-1 cells assessed as reduction in cell viability incubated for 48 hrs by AlamarBlue-based assay; type: functional; conditions: DLD-1, 48 h
HT-29 = experiment: Cytotoxicity against human HT-29 cells assessed as reduction in cell viability incubated for 48 hrs by AlamarBlue-based assay; type: functional; conditions: HT-29, 48 h
HCT-116 [7] = experiment: Cytotoxicity against p53-/- human HCT-116 cells assessed as reduction in cell viability incubated for 48 hrs by AlamarBlue-based assay; type: functional; conditions: HCT-116, 48 h
[8] = Cytotoxicity against human FHs74Int cells assessed as reduction in cell viability incubated for 48 hrs by AlamarBlue-based assay; type: toxicity
[9] = Cytotoxicity against human FHC cells assessed as reduction in cell viability incubated for 48 hrs by AlamarBlue-based assay; type: toxicity
[10] = Selectivity index, ratio of CC50 for cytotoxicity against non-cancerous cells to EC50 for cytotoxicity against human HCT-116 cells; type: toxicity, cell-based; conditions: non-cancerous cells versus HCT-116 cells, read-out: Ratio CC50/EC50
HCT-116 [11] = experiment: Cytotoxicity against human HCT-116 cells assessed as reduction in cell viability incubated for 72 hrs by AlamarBlue-based assay relative to control; type: functional
HCT-116 [12] = experiment: Cytotoxicity against human HCT-116 cells assessed as reduction in cell viability at 0.01 to 100 uM by Trypan Blue staining based analysis; type: functional; conditions: dose 0.01-100 µM, time 24-48 hrs, TDE = time-dependent effect
HCT-116 [13] = experiment: Induction of apoptosis in human HCT-116 cells at 0.1 to 100 uM incubated for 48 hrs by AnnexinV-FITC/PI staining based flow cytometry; type: functional, cell-based; conditions: dose 0.1-100 µM
HCT-116 [14] = experiment: Induction of necrotic cell death in human HCT-116 cells at 0.1 to 100 uM incubated for 48 hrs by AnnexinV-FITC/PI staining based flow cytometry; type: functional; conditions: dose 0.1-100 µM
HCT-116 [15] = experiment: Inhibition of clonogenicity in human HCT-116 cells at > 1 uM incubated for 72 hrs followed by incubation in fresh medium for 7 days by crystal violet staining based analysis; type: functional, cell-based
Escherichia coli = experiment: Inhibition of Escherichia coli GroEL expressed in NEB-5-alpha Escherichia coli cells/Escherichia coli GroES expressed in Escherichia coli BL21(DE3) cells assessed as inhibition of GroEL/ES-mediated dMDH refolding measured after 24 hrs dialysis period by reporter analysis
HCT-116 [16] = experiment: Inhibition of cell migration in human HCT-116 cells measured after 26 hrs by scratch wound healing assay; type: functional, cell-based; conditions: HCT-116, 26 h
HCT-116 [17] = experiment: Cytotoxicity against human HCT-116 cells assessed as reduction in cell viability incubated for 48 hrs by AlamarBlue-based assay relative to control; type: functional

Row | SMILES | IC50 [1] [µM] | IC50 [2] [µM] | IC50 [3] [µM] | IC50 [4] [µM] | IC50 [5] [µM] | EC50 (HCT-116 [6]) [µM] | EC50 (DLD-1) [µM] | EC50 (HT-29) [µM] | EC50 (HCT-116 [7]) [µM] | CC50 at 48 h [8] [µM] | CC50 at 48 h [9] [µM] | selectivity ratio [10] | Activity (HCT-116 [11]) [%] | Activity (HCT-116 [12]) | Activity (HCT-116 [13]) | Activity (HCT-116 [14]) | inhibition (HCT-116 [15]) | inhibition (Escherichia coli) | EC50 (HCT-116 [16]) [µM] | Activity (HCT-116 [17]) [%]
1 | COc1ccc(C(=O)/C=C/c2ccccc2)cc1 [4'-METHOXYCHALCONE] | 13 | 34 | 16 | > 100 | > 63 | 16 | 35 | 23 | 17 | 37 | 62 | 3.2 |  |  |  |  |  |  |  | 
2 | Nc1ccc(C(=O)/C=C/c2ccccc2)cc1 | 57 | 135 | 43 | > 100 | > 63 | 27 | 33 | 35 | 23 | 97 | > 100 | 3.7 |  |  |  |  |  |  |  | 
3 | O=C(/C=C/c1ccccc1)c1ccccc1 [CHALCONE] | 7.1 | 27 | 8.6 | > 100 | > 63 | 9.5 | 25 | 14 | 11 | 46 | 71 | 6.2 |  |  |  |  |  |  |  | 
4 | O=C(/C=C/c1ccc([N+](=O)[O-])cc1)c1ccc(O)c(O)c1 | 2 | 1.3 | 6.2 | 45 | > 63 | 5.8 | 9.6 | 8.2 | 6.1 | 11 | 28 | 3.4 |  |  |  |  |  |  |  | 
5 | O=C(/C=C/c1cccc([N+](=O)[O-])c1)c1ccc(NC(=O)c2ccccc2)cc1 | 0.71 | 3.1 | 2.3 | > 100 | > 63 | 4.1 | > 100 | 3.9 | 25 | > 100 | > 100 | 24 |  |  |  |  |  |  |  | 
6 | O=C(/C=C/c1ccco1)c1ccc(NC(=O)c2ccccc2)cc1 | 21 | 37 | 20 | > 100 | > 63 | 42 | 69 | 76 | 59 | > 100 | > 100 | 2.4 |  |  |  |  |  |  |  | 
7 | O=C(/C=C/c1cccc([N+](=O)[O-])c1)c1ccc(NC(=O)c2ccco2)cc1 | 0.73 | 2.2 | 2.5 | > 100 | > 63 | 3.4 | 22 | 3.5 | 4.1 | 54 | > 100 | 23 | 100 | Tde | Active | Active | Active | Active |  | 
8 | CC(=O)Nc1ccc(C(=O)/C=C/c2cccc([N+](=O)[O-])c2)cc1 | 2.1 | 7 | 7.7 | > 100 | > 63 | 1.7 | 6.3 | 2 | 1.8 | 12 | 15 | 7.9 |  |  |  |  |  |  |  | 
9 | O=C(/C=C/c1ccc(O)cc1)c1ccccc1 [4-HYDROXYCHALCONE] | 20 | 39 | 21 | > 100 | > 63 | 32 | 51 | 39 | 32 | 97 | > 100 | 3.1 |  |  |  |  |  |  |  | 
10 | OC(/C=C/c1ccccc1)c1ccccc1 (stereo unspecified) | > 100 | > 250 | > 100 | > 100 | > 63 | > 100 | > 100 | > 100 | > 100 | > 100 | > 100 |  |  |  |  |  |  |  |  | 
11 | O=C(CCc1ccccc1)c1ccccc1 | > 100 | > 250 | > 100 | > 100 | > 63 | > 100 | > 100 | > 100 | > 100 | > 100 | > 100 |  |  |  |  |  |  |  |  | 
12 | O=C(/C=C/c1ccccc1)c1ccc(O)cc1 [4'-HYDROXYCHALCONE] | 20 | 61 | 21 | > 100 | > 63 | 20 | 34 | 30 | 21 | 65 | 82 | 3.7 |  |  |  |  |  |  |  | 
13 | Nc1ccc(C(=O)/C=C/c2ccco2)cc1 | 5.9 | 12 | 9.8 | 55 | 46 | 21 | 31 | 28 | 24 | 86 | 90 | 4.2 |  |  |  |  |  |  |  | 
14 | O=C(NCc1ccccc1)c1ccccc1 | > 100 | > 250 | > 100 | > 100 | > 63 | > 100 | > 100 | > 100 | > 100 | > 100 | > 100 |  |  |  |  |  |  |  |  | 
15 | CC(=O)Nc1ccc(C(=O)/C=C/c2ccccc2)cc1 | 9.4 | 40 | 14 | > 100 | > 63 | 11 | 28 | 13 | 11 | 58 | 86 | 6.7 |  |  |  |  |  |  |  | 
16 | CC(=O)Nc1ccc(C(=O)/C=C/c2ccco2)cc1 | 41 | 67 | 44 | > 100 | > 63 | 56 | 84 | 88 | 72 | 99 | > 100 | 1.8 |  |  |  |  |  |  |  | 
17 | O=C(/C=C/c1ccccc1)c1ccc(NC(=O)c2ccccc2)cc1 | 4.3 | 27 | 5.9 | > 100 | > 63 | 17 | 46 | 36 | 28 | 60 | 73 | 3.9 |  |  |  |  |  |  |  | 
18 | O=C(/C=C/c1cccc([N+](=O)[O-])c1)c1ccc(NC(=O)c2cccs2)cc1 | 0.41 | 1.5 | 2.2 | > 100 | > 63 | 2.6 | 11 | 2.5 | 2.5 | 24 | 73 | 19 |  | Tde | Active | Active | Active |  | 13 | 100
19 | COc1ccc(/C=C/C(=O)c2ccccc2)cc1 [4-METHOXY CHALCONE] | 27 | 46 | 22 | > 100 | > 63 | 22 | 52 | 32 | 30 | 91 | 99 | 4.4 |  |  |  |  |  |  |  | 
20 | O=C(/C=C/c1ccccc1)c1ccc(NC(=O)c2cccs2)cc1 | 3.8 | 20 | 4.7 | > 100 | > 63 | 12 | 35 | 28 | 16 | 40 | 83 | 4.9 |  |  |  |  |  |  |  | 
21 | O=C(/C=C/c1ccco1)c1ccc(NC(=O)c2cccs2)cc1 | 6.7 | 9.7 | 12 | > 100 | > 63 | 33 | 56 | 50 | 45 | 68 | 93 | 2.4 |  |  |  |  |  |  |  | 
